Values quoted from earlier work in patent US20220257490A1, “METHOD FOR DYEING KERATINOUS MATERIAL, COMPRISING THE USE OF AN ORGANOSILICON COMPOUND, A COLORED EFFECT PIGMENT AND A FILM-FORMING POLYMER IV” (Henkel AG & Co. KGaA, priority 2019, published 2022).

Settings: 25° C.

Row | SMILES | solubility in water | solubility in water (in words)
1 | O=S(=O)([O-])c1ccc(N=Nc2c(O)ccc3ccccc23)cc1.[Na+] [Acid Orange 7, sodium salt of 4-[(2-hydroxy-1-naphthyl)azo]benzene sulphonate] | more than 7 g/L | 
2 | Nc1cc(S(=O)(=O)[O-])cc2cc(S(=O)(=O)[O-])c(N=Nc3ccccc3)c(O)c12.[Na+].[Na+] [Acid Red 33, disodium salt of 5-amino-4-hydroxy-3-(phenylazo)-naphthalene-2,7-disulphonate] | 2500 µg/mL | 
3 | O=C([O-])c1c(Cl)c(Cl)c(Cl)c(Cl)c1-c1c2c(Br)cc(=O)c(Br)c-2oc2c(Br)c(O)cc(Br)c12.O=C([O-])c1c(Cl)c(Cl)c(Cl)c(Cl)c1-c1c2c(Br)cc(=O)c(Br)c-2oc2c(Br)c(O)cc(Br)c12.[Na+].[Na+] [Acid Red 92, disodium salt of 3,4,5,6-tetrachloro-2-(1,4,5,8-tetrabromo-6-hydroxy-3-oxoxanthen-9-yl)benzoic acid] | greater than 10 g/L | 
4 | O=C([O-])C1=NN(c2ccc(S(=O)(=O)[O-])cc2)C(=O)C1N=Nc1ccc(S(=O)(=O)[O-])cc1.[Na+].[Na+].[Na+] (stereo not shown) [Acid Yellow 23, trisodium salt of 4,5-dihydro-5-oxo-1-(4-sulfophenyl)-4-((4-sulfophenyl)azo)-1H-pyrazole-3-carboxylic acid] |  | highly soluble in water
